Our source for the IC50 values is US12030879B2, “Sulfonyl acetamides as NLRP3 inhibitors” (Inflazome Limited, priority 2018, dated 2024).

SMILES strings stand for the structures. Structures can show the parent of a compound that is named as a salt.

For the test, the target named is T1, NLRP3 (Homo sapiens, UniProt Q96P20).
T1 construct: Seed THP-1 cells (25,000 cells/well) containing 1.0 μg/ml LPS in 40 μl of RPMI medium; host or cells: THP-1 cells
T1 sequence (Q96P20 whole entry): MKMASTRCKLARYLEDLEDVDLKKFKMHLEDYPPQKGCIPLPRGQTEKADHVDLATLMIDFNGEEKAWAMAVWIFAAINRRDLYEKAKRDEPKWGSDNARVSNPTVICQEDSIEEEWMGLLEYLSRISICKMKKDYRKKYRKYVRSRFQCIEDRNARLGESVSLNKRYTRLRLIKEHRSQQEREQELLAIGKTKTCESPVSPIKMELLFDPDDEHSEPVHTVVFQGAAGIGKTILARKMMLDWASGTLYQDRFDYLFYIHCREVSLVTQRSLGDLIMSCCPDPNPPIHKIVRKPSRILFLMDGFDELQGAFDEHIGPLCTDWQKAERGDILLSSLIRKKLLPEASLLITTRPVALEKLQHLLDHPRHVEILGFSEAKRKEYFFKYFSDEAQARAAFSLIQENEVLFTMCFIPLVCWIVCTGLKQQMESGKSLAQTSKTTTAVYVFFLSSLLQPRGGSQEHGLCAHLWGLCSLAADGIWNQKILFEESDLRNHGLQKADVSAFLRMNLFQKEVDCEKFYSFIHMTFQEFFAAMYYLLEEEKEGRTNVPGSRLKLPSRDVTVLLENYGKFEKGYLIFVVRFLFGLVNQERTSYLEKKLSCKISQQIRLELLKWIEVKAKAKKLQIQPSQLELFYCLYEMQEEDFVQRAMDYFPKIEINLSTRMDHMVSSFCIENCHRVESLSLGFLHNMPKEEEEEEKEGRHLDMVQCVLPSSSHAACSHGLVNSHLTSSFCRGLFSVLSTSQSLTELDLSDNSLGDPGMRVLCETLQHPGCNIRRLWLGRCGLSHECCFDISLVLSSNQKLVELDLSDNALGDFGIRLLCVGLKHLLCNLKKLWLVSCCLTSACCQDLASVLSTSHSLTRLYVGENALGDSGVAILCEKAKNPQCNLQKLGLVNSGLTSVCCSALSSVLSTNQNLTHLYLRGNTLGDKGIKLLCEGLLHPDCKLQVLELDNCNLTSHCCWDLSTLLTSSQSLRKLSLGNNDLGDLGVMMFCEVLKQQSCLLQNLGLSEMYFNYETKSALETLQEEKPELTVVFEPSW
The experiment in a line: THP-1 cells pyroptosis assay. Type of test: cell-based. Conditions: LPS 1 μg/ml, compound 3 hrs, nigericin 5 μM 1 hr, resazurin readout. On the procedure:
THP-1 cells (ATCC #TIB-202) were grown in RPMI containing L-glutamine (Gibco #11835) supplemented with 1 mM sodium pyruvate (Sigma #S8636) and penicillin (100 units/ml)/streptomycin (0.1 mg/ml) (Sigma #P4333) in 10% Fetal Bovine Serum (FBS) (Sigma #F0804). The cells were routinely passaged and grown to confluency (10^6 cells/ml). On the day of the experiment, THP-1 cells were harvested and resuspended into RPMI medium (without FBS). The cells were then counted and viability (>90%) checked by Trypan blue (Sigma #T8154). Appropriate dilutions were made to give a concentration of 625,000 cells/ml. To this diluted cell solution was added LPS (Sigma #L4524) to give a 1 μg/ml Final Assay Concentration (FAC). 40 μl of the final preparation was aliquoted into each well of a 96-well plate. The plate thus prepared was used for compound screening.
The following method step-by-step assay was followed for compound screening. • 1. Seed THP-1 cells (25,000 cells/well) containing 1.0 μg/ml LPS in 40 μl of RPMI medium (without FBS) in 96-well, black walled, clear bottom cell culture plates coated with poly-D-lysine (VWR #734-0317) • 2. Add 5 μl compound (8 points half-log dilution, with 10 μM top dose) or vehicle (DMSO 0.1% FAC) to the appropriate wells • 3. Incubate for 3 hrs at 37° C., 5% CO2 • 4. Add 5 μl nigericin (Sigma #N7143) (FAC 5 μM) to all wells • 5. Incubate for 1 hr at 37° C., 5% CO2 • 6. At the end of the incubation period, spin plates at 300×g for 3 mins and remove supernatant • 7. Then add 50 μl of resazurin (Sigma #R7017)(FAC 100 μM resazurin in RPMI medium without FBS) and incubate plates for a further 1-2 hrs at 37° C. and 5% CO2 • 8. Plates were read in an Envision reader at Ex 560 nm and Em 590 nm • 9. IC50 data is fitted to a non-linear regression equation (log inhibitor vs response-variable slope 4-parameters) 96-well Plate Map
In the case of `COc1cc(-c2cc(F)cc(C(C)C)c2CC(=O)NS(=O)(=O)c2cccc(CC#N)c2)ccn1` [Example 32, N-((3-(Cyanomethyl)phenyl)sulfonyl)-2-(4-fluoro-2-isopropyl-6-(2-methoxypyridin-4-yl)phenyl)acetamide], the 50% inhibitory concentration (IC50) is at most 1 µM.

Compound `COc1cc(-c2cc(F)cc(C(C)C)c2CC(=O)NS(=O)(=O)c2ccc(C(C)(C)O)cc2C)ccn1` [Example 33, 2-(4-Fluoro-2-isopropyl-6-(2-methoxypyridin-4-yl)phenyl)-N-((4-(2-hydroxypropan-2-yl)-2-methylphenyl)sulfonyl)acetamide] registered an IC50 of at most 0.5 µM.

As to `COc1cc(-c2cc(F)cc(C(C)C)c2CC(=O)NS(=O)(=O)c2ccc(F)c(C#N)c2)ccn1` [Example 34, N-((3-Cyano-4-fluorophenyl)sulfonyl)-2-(4-fluoro-2-isopropyl-6-(2-methoxypyridin-4-yl)phenyl)acetamide], the IC50 was at most 10 µM.

`COc1cc(-c2cc(F)cc(C(C)C)c2CC(=O)NS(=O)(=O)c2cc(C#N)ccc2C)ccn1` [Example 35, N-((5-Cyano-2-methylphenyl)sulfonyl)-2-(4-fluoro-2-isopropyl-6-(2-methoxypyridin-4-yl)phenyl)acetamide] displayed a half-inhibitory concentration (IC50) of at most 10 µM.

`CC(C)c1cc(F)cc(-c2ccncc2)c1CC(=O)NS(=O)(=O)c1ccc(CN(C)C)cc1` [Example 36, N-((4-((Dimethylamino)methyl)phenyl)sulfonyl)-2-(4-fluoro-2-isopropyl-6-(pyridin-4-yl)phenyl)acetamide] gave an IC50 of at most 5 µM.

Take `COc1cc(-c2cc(F)cc(C(C)C)c2CC(=O)NS(=O)(=O)c2ccc(C#N)cc2C)ccn1` [Example 37, N-((4-Cyano-2-methylphenyl)sulfonyl)-2-(4-fluoro-2-isopropyl-6-(2-methoxypyridin-4-yl)phenyl)acetamide]: the half-maximal inhibitory concentration (IC50) was at most 5 µM.

Take `COc1cc(-c2cc(F)cc(C(C)C)c2CC(=O)NS(=O)(=O)c2cccc(CO)c2)ccn1` [Example 38, 2-(4-Fluoro-2-isopropyl-6-(2-methoxypyridin-4-yl)phenyl)-N-((3-(hydroxymethyl)phenyl)sulfonyl)acetamide, potassium salt]: the IC50 is at most 1 µM.

Regarding `COC(=O)c1ccc(S(=O)(=O)NC(=O)Cc2c(-c3ccnc(OC)c3)cc(F)cc2C(C)C)c(C)c1` [Example 39, Methyl 4-(N-(2-(4-fluoro-2-isopropyl-6-(2-methoxypyridin-4-yl)phenyl)acetyl)sulfamoyl)-3-methylbenzoate], the IC50 is at most 10 µM.

For `COc1cc(-c2cc(F)cc(C(C)C)c2CC(=O)NS(=O)(=O)c2cc(C(C)(C)O)co2)ccn1` [Example 40, 2-(4-Fluoro-2-isopropyl-6-(2-methoxypyridin-4-yl)phenyl)-N-((4-(2-hydroxypropan-2-yl)furan-2-yl)sulfonyl)acetamide], the 50% inhibitory concentration (IC50) was at most 0.5 µM.

For `COc1cc(-c2cc(F)cc(C(C)C)c2CC(=O)NS(=O)(=O)C(C)c2ccccc2)ccn1` (stereo not drawn) [Example 41, 2-(4-Fluoro-2-isopropyl-6-(2-methoxypyridin-4-yl)phenyl)-N-((1-phenylethyl)sulfonyl)acetamide], the concentration for half-maximal inhibition (IC50) was at most 10 µM.

The compound `COc1cc(-c2cc(F)cc(C(C)C)c2CC(=O)NS(=O)(=O)c2cnn(C)c2)ccn1` [Example 42, 2-(4-Fluoro-2-isopropyl-6-(2-methoxypyridin-4-yl)phenyl)-N-((1-methyl-1H-pyrazol-4-yl)sulfonyl)acetamide] returned a half-inhibitory concentration (IC50) of at most 10 µM.

In the case of `COc1cc(-c2cc(F)cc(C(C)C)c2CC(=O)NS(=O)(=O)c2ccc(C(C)=O)cc2)ccn1` [Example 43, N-((4-Acetylphenyl)sulfonyl)-2-(4-fluoro-2-isopropyl-6-(2-methoxypyridin-4-yl)phenyl)acetamide], the IC50 is at most 5 µM.

For the compound `COc1cc(-c2ccc3c(c2CC(=O)NS(=O)(=O)N(C)C2CCN(C)C2)CCC3)ccn1` (stereo not drawn) [Example 55, 2-(5-(2-Methoxypyridin-4-yl)-2,3-dihydro-H-inden-4-yl)-N—(N-methyl-N-(1-methylpyrrolidin-3-yl)sulfamoyl)acetamide, potassium salt], the IC50 is at most 5 µM.

On to `CCN(CC)CCCS(=O)(=O)NC(=O)Cc1c(-c2ccnc(OC)c2)ccc2c1CCC2` [Example 56, N-((3-(Diethylamino)propyl)sulfonyl)-2-(5-(2-methoxypyridin-4-yl)-2,3-dihydro-1H-inden-4-yl)acetamide], for which the IC50 was at most 10 µM.

`CCN(CC)CCCS(=O)(=O)NC(=O)Cc1c(-c2ccnc(OC)c2)cc(F)cc1C(C)C` [Example 57, N-((3-(Diethylamino)propyl)sulfonyl)-2-(4-fluoro-2-isopropyl-6-(2-methoxypyridin-4-yl)phenyl)acetamide, potassium salt] showed an IC50 of at most 5 µM.

Take `COc1cc(-c2cc(F)cc(C(C)C)c2CC(=O)NS(=O)(=O)c2cc(C(=O)N(C)C)n(C)n2)ccn1` [Example 58, 3-(N-(2-(4-Fluoro-2-isopropyl-6-(2-methoxypyridin-4-yl)phenyl)acetyl)sulfamoyl)-N,N,1-trimethyl-1H-pyrazole-5-carboxamide]: the IC50 was at most 1 µM.

The compound `CC(C)c1cc(F)cc(-c2cccnc2)c1CC(=O)NS(=O)(=O)c1cc(C(=O)N(C)C)n(C)n1` [Example 59, 3-(N-(2-(4-Fluoro-2-isopropyl-6-(pyridin-3-yl)phenyl)acetyl)sulfamoyl)-N,N,1-trimethyl-1H-pyrazole-5-carboxamide] gave a 50% inhibitory concentration (IC50) of at most 5 µM.

For the compound `CC(C)c1cc(F)cc(-c2ccncc2)c1CC(=O)NS(=O)(=O)c1cc(C(=O)N(C)C)n(C)n1` [Example 60, 3-(N-(2-(4-Fluoro-2-isopropyl-6-(pyridin-4-yl)phenyl)acetyl)sulfamoyl)-N,N,1-trimethyl-1H-pyrazole-5-carboxamide], the IC50 was at most 5 µM.

Consider `CC(C)c1cc(F)cc(-c2ccncc2)c1CC(=O)NS(=O)(=O)c1ccn(C(C)(C)CN(C)C)n1` [Example 61, N-((1-(1-(Dimethylamino)-2-methylpropan-2-yl)-1H-pyrazol-3-yl)sulfonyl)-2-(4-fluoro-2-isopropyl-6-(pyridin-4-yl)phenyl)acetamide], for which the concentration for half-maximal inhibition (IC50) was at most 5 µM.

In the case of `COc1cc(-c2cc(F)cc(C(C)C)c2CC(=O)NS(=O)(=O)c2cc(CN(C)C)n(C)n2)ccn1` [Example 62, N-((5-((Dimethylamino)methyl)-1-methyl-1H-pyrazol-3-yl)sulfonyl)-2-(4-fluoro-2-isopropyl-6-(2-methoxypyridin-4-yl)phenyl) acetamide], the half-maximal inhibitory concentration (IC50) is at most 5 µM.

`COc1cc(-c2ccc3c(c2CC(=O)NS(=O)(=O)c2cc(C(=O)N(C)C)n(C)n2)CCC3)ccn1` [Example 64, 3-(N-(2-(5-(2-Methoxypyridin-4-yl)-2,3-dihydro-1H-inden-4-yl)acetyl)sulfamoyl)-N,N,1-trimethyl-1H-pyrazole-5-carboxamide] gave an IC50 of at most 10 µM.

The compound `CN(C)C(=O)c1cc(S(=O)(=O)NC(=O)Cc2c(-c3ccnc(C#N)c3)ccc3c2CCC3)nn1C` [Example 65, 3-(N-(2-(5-(2-Cyanopyridin-4-yl)-2,3-dihydro-1H-inden-4-yl)acetyl)sulfamoyl)-N,N,1-trimethyl-1H-pyrazole-5-carboxamide] displayed an IC50 of at most 5 µM.

On to `CC(C)c1cc(F)cc(-c2ccncc2)c1CC(=O)NS(=O)(=O)c1cc(CN(C)C)n(C)n1` [Example 73, N-((5-((Dimethylamino)methyl)-1-methyl-H-pyrazol-3-yl)sulfonyl)-2-(4-fluoro-2-isopropyl-6-(pyridin-4-yl)phenyl)acetamide], for which the IC50 was at most 5 µM.

`COc1cc(-c2cc(F)cc(C(C)C)c2CC(=O)NS(=O)(=O)C[C@]23CCC(CC2=O)C3(C)C)ccn1` [Example 75] registered a half-maximal inhibitory concentration (IC50) of at most 10 µM.

For `COc1cc(-c2cc(F)cc(C(C)C)c2CC(=O)NS(=O)(=O)N(C)C2CCN(C)C2)ccn1` (stereo not drawn) [Example 76, 2-(4-Fluoro-2-isopropyl-6-(2-methoxypyridin-4-yl)phenyl)-N—(N-methyl-N-(1-methylpyrrolidin-3-yl)sulfamoyl)acetamide], the half-inhibitory concentration (IC50) is at most 5 µM.

`COc1cc(-c2cc(F)cc(C(C)C)c2CC(=O)NS(=O)(=O)C[C@@]23CC[C@@H](C[C@H]2O)C3(C)C)ccn1` [Example 77, 2-(4-Fluoro-2-isopropyl-6-(2-methoxypyridin-4-yl)phenyl)-N-((((1R,2R,4S)-2-hydroxy-7,7-dimethylbicyclo[2.2.1]heptan-1-yl)methyl)sulfonyl)acetamide] came in with a 50% inhibitory concentration (IC50) of at most 5 µM.

`COc1cc(-c2cc(F)cc(C(C)C)c2CC(=O)NS(=O)(=O)CCCC(C)(C)O)ccn1` [Example 78, 2-(4-Fluoro-2-isopropyl-6-(2-methoxypyridin-4-yl)phenyl)-N-((4-hydroxy-4-methylpentyl)sulfonyl)acetamide] yielded a concentration for half-maximal inhibition (IC50) of at most 10 µM.
